Data taken from patent US20260355165A1, “2,3,4,9-TETRAHYDRO-1H-PYRIDO[3,4-B]INDOLE DERIVATIVES AS ESTROGEN RECEPTOR MODULATORS FOR THE TREATMENT OF CANCER” (Olema Pharmaceuticals, Inc., priority 2022, published 2026).

Biological target: T1, estrogen receptor (Homo sapiens, UniProt P03372)
T1 construct: endogenous in cells; host or cells: ECC-1 cells
T1 sequence (P03372 1-595): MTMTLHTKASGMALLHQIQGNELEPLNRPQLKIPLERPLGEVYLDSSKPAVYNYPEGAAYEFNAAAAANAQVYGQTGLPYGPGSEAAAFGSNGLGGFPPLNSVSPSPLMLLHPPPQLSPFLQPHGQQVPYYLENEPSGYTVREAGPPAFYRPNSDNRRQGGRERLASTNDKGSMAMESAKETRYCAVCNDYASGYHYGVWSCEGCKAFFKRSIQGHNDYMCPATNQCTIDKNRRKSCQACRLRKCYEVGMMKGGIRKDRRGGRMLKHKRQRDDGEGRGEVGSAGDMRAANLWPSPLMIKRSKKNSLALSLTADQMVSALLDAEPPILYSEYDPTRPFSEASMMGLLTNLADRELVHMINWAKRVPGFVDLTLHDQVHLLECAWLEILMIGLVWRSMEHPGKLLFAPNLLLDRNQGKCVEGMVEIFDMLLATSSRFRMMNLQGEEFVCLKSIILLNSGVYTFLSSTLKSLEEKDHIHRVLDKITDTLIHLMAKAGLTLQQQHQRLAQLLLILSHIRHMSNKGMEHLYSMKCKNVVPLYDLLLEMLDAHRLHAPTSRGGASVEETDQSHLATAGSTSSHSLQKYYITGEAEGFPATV
Assay: AP assay (alkaline phosphatase activity in ECC-1 cells), agonist mode (absence of E2) and antagonist mode (presence of 500 pM E2)
Assay type: cell-based
Conditions: 3 days, AP activity normalized to 500 pM E2 alone, agonist and antagonist mode combined
Experimental: ECC-1 cells were trypsinized and resuspended in hormone-depleted media and plated at a density of 15 k cells per well into a 96-well plate for at least 4 hours. Cells were treated with test compounds in the absence of E2 (for agonist mode) or in the presence of 500 pM E2 (for antagonist mode) for 3 days and plates were subsequently frozen at −80 °C. Thawed plates were incubated with a chromogenic substrate of AP, p-nitrophenyl phosphate (Thermo Fisher Scientific), for 40 minutes at 42 °C, and absorbances were read at 405 nm. AP activity was normalized to the activity of 500 pM E2 alone.
The compound numbers correspond to the compound numbers of Table 1 and 2. Compounds having an activity designated as “+” provided estrogen receptor agonism having (i) at least 80% increase in the E2-normalized signal in the AP assay (agonist mode) and (ii) no more than 80% reduction in the E2-normalized signal in the AP assay (antagonist mode). Compounds having an activity designated as “++” provided estrogen receptor antagonism having (i) between 10% and 80% increase in the E2-normalized signal in the AP assay (agonist mode) and (ii) between 10% and 80% reduction in the E2-normalized signal in the AP assay (antagonist mode).

Row | Structure (SMILES) | Activity (estrogen receptor modulation, e.g., agonism and antagonism)
1 | C[C@@H]1Cc2c([nH]c3ccccc23)[C@@H](c2n[nH]c3cc(CN4CCC45CC(F)(F)C5)ccc23)N1CC(C)(C)F [Compound I-34, (1S,3R)-1-[6-[(6,6-difluoro-1-azaspiro[3.3]heptan-1-yl)methyl]-1H-indazol-3-yl]-2-(2-fluoro-2-methyl-propyl)-3-methyl-1,3,4,9-tetrahydropyrido[3,4-b]indole] | + (estrogen receptor agonism having (i) at least 80% increase in the E2-normalized signal in the AP assay (agonist mode) and (ii) no more than 80% reduction in the E2-normalized signal in the AP assay (antagonist mode))
2 | C[C@@H]1Cc2c([nH]c3ccccc23)[C@@H](c2n[nH]c3cc(CN4CC(CF)C4)ccc23)N1CC(F)F [Compound I-36, (1S,3R)-2-(2,2-difluoroethyl)-1-(6-((3-(fluoromethyl)azetidin-1-yl)methyl)-1H-indazol-3-yl)-3-methyl-2,3,4,9-tetrahydro-1H-pyrido[3,4-b]indole] | ++ (estrogen receptor antagonism having (i) between 10% and 80% increase in the E2-normalized signal in the AP assay (agonist mode) and (ii) between 10% and 80% reduction in the E2-normalized signal in the AP assay (antagonist mode))
3 | CC1CN(Cc2ccc3c([C@@H]4c5[nH]c6ccccc6c5C[C@@H](C)N4CC(F)F)n[nH]c3c2)C1 [Compound I-37, (1S,3R)-2-(2,2-difluoroethyl)-3-methyl-1-(6-((3-methylazetidin-1-yl)methyl)-1H-indazol-3-yl)-2,3,4,9-tetrahydro-1H-pyrido[3,4-b]indole] | ++ (estrogen receptor antagonism having (i) between 10% and 80% increase in the E2-normalized signal in the AP assay (agonist mode) and (ii) between 10% and 80% reduction in the E2-normalized signal in the AP assay (antagonist mode))
4 | C[C@@H]1Cc2c([nH]c3ccccc23)[C@@H](c2n[nH]c3cc(CN4CC5(COC5)C4)ccc23)N1CC(F)F [Compound I-39, 6-((3-((1S,3R)-2-(2,2-difluoroethyl)-3-methyl-2,3,4,9-tetrahydro-1H-pyrido[3,4-b]indol-1-yl)-1H-indazol-6-yl)methyl)-2-oxa-6-azaspiro[3.3]heptane] | ++ (estrogen receptor antagonism having (i) between 10% and 80% increase in the E2-normalized signal in the AP assay (agonist mode) and (ii) between 10% and 80% reduction in the E2-normalized signal in the AP assay (antagonist mode))
5 | C[C@@H]1Cc2c([nH]c3ccccc23)[C@@H](c2ccc3[nH]c(CN4CC(CF)C4)cc3c2)N1CC(C)(C)F [Compound I-40, (1R,3R)-1-[2-[[3-(fluoromethyl)azetidin-1-yl]methyl]-1H-indol-5-yl]-2-(2-fluoro-2-methyl-propyl)-3-methyl-1,3,4,9-tetrahydropyrido[3,4-b]indole] | +++ (estrogen receptor antagonism (i) with pIC50 greater than 7.5 and at least a 10% reduction in the E2-normalized signal in the AP assay (antagonist mode); and (ii) no more than 10% increase in E2-normalized signal in the AP assay (agonist mode))
6 | C[C@@H]1Cc2c([nH]c3ccccc23)[C@@H](c2cc3cc(CN4CC(CF)C4)ccc3[nH]2)N1CC(C)(C)F [Compound I-41, (1R,3R)-1-[5-[[3-(fluoromethyl)azetidin-1-yl]methyl]-1H-indol-2-yl]-2-(2-fluoro-2-methyl-propyl)-3-methyl-1,3,4,9-tetrahydropyrido[3,4-b]indole] | ++ (estrogen receptor antagonism having (i) between 10% and 80% increase in the E2-normalized signal in the AP assay (agonist mode) and (ii) between 10% and 80% reduction in the E2-normalized signal in the AP assay (antagonist mode))
